From ChEMBL document CHEMBL3046288, “Effect of isoxaflutole on the growth, nodulation and nitrogen fixation of chickpea (Cicer arietinum L.)” (Crop Prot, 2009) come the findings set out here.

What all share (assay type): organism-based
The subject of series [1] is Cicer arietinum. In words: Toxicity in drug-sensitive Cicer arietinum (chickpea) assessed as effect on root nitrogen level per gram of root dry weight at 75 g/ha after 42 days (reference value: 13.4 mg). The settings on record: in vivo, 1008 h.
For series [2], the system named is Cicer arietinum. In words: Toxicity in drug-tolerant Cicer arietinum (chickpea) assessed as effect on root nitrogen level per gram of root dry weight at 75 g/ha after 42 days (reference value: 12.1 mg). The settings on record: in vivo, other, 1008 h.
Series [3] concerns Cicer arietinum. The series can be described thus: Toxicity in drug-sensitive Cicer arietinum (chickpea) assessed as effect on average nodule weight at 75 g/ha after 42 days (reference value: 1.31 mg). The following applies: in vivo, 1008 h.
Series [4] relates to Cicer arietinum. In words: Toxicity in drug-tolerant Cicer arietinum (chickpea) assessed as effect on average nodule weight at 75 g/ha after 42 days (reference value: 1.21 mg). The following applies: in vivo, 1008 h.
In series [5] the test system is Cicer arietinum. The series can be described thus: Toxicity in drug-sensitive Cicer arietinum (chickpea) assessed as effect on nodule dry weight per gram of root dry weight at 75 g/ha after 42 days (reference value: 258 mg). The following applies: in vivo, 1008 h.
The test system of series [6] is Cicer arietinum. The series can be described thus: Toxicity in drug-tolerant Cicer arietinum (chickpea) assessed as effect on nodule dry weight per gram of root dry weight at 75 g/ha after 42 days (reference value: 209.7 mg). The following applies: in vivo, other, 1008 h.
In series [7] the test system is Cicer arietinum. In words: Toxicity in drug-sensitive Cicer arietinum (chickpea) assessed as effect on root dry weight per pot at 75 g/ha after 42 days (reference value: 0.26 gram). The following applies: in vivo, 1008 h.
Series [8] has as its system Cicer arietinum. The series can be described thus: Toxicity in drug-tolerant Cicer arietinum (chickpea) assessed as effect on root dry weight per pot at 75 g/ha after 42 days (reference value: 0.30 gram). The settings on record: in vivo, 1008 h.
Series [9] deals with Cicer arietinum. In words: Toxicity in drug-sensitive Cicer arietinum (chickpea) assessed as effect on shoot dry weight per pot at 75 g/ha after 42 days in presence of 1.5 mM of nitrate (reference value: 0.38 gram). The settings on record: in vivo, 1008 h.
For series [10], the system named is Cicer arietinum. In words: Toxicity in drug-tolerant Cicer arietinum (chickpea) assessed as effect on shoot dry weight per pot at 75 g/ha after 42 days in presence of 1.5 mM of nitrate (reference value: 0.50 gram). The following applies: in vivo, 1008 h.
Series [11] concerns Cicer arietinum. The series can be described thus: Toxicity in drug-tolerant Cicer arietinum (chickpea) assessed as effect on shoot dry weight per pot at 75 g/ha after 42 days (reference value: 0.53 gram). The following applies: in vivo, 1008 h.
Series [12] relates to Cicer arietinum. In words: Toxicity in drug-sensitive Cicer arietinum (chickpea) assessed as effect on shoot dry weight per pot at 75 g/ha after 42 days (reference value: 0.50 gram). The following applies: in vivo, 1008 h.
The subject of series [13] is Cicer arietinum. The series can be described thus: Toxicity in drug-sensitive Cicer arietinum (chickpea) assessed as effect on plant height at 75 g/ha after 42 days (reference value: 21.8 cm). The settings on record: in vivo, 1008 h.
Series [14] deals with Cicer arietinum. In words: Toxicity in drug-tolerant Cicer arietinum (chickpea) assessed as effect on plant height at 75 g/ha after 42 days (reference value: 21.4 cm). The settings on record: in vivo, 1008 h.
In series [15] the test system is Cicer arietinum. The series can be described thus: Toxicity in drug-tolerant Cicer arietinum (chickpea) assessed as effect on amount of fixed nitrogen level per gram of plant dry weight at 75 g/ha after 42 days in presence of 1.5 mM of nitrate (reference value: 5.9 mg). The settings on record: in vivo, 1008 h.
Series [16] concerns Cicer arietinum. The series can be described thus: Toxicity in drug-sensitive Cicer arietinum (chickpea) assessed as effect on amount of fixed nitrogen level per gram of plant dry weight at 75 g/ha after 42 days in presence of 1.5 mM of nitrate (reference value: 6 mg). The settings on record: in vivo, 1008 h.
Series [17] relates to Cicer arietinum. In words: Toxicity in drug-sensitive Cicer arietinum (chickpea) assessed as effect on amount of fixed nitrogen level per gram of plant dry weight at 75 g/ha after 42 days (reference value: 5.5 mg). The settings on record: in vivo, 1008 h.
Series [18] concerns Cicer arietinum. In words: Toxicity in drug-tolerant Cicer arietinum (chickpea) assessed as effect on amount of fixed nitrogen level per gram of plant dry weight at 75 g/ha after 42 days (reference value: 5.5 mg). The following applies: in vivo, 1008 h.
The test system of series [19] is Cicer arietinum. In words: Toxicity in drug-sensitive Cicer arietinum (chickpea) assessed as effect on total nitrogen level per gram of plant dry weight at 75 g/ha after 42 days (reference value: 34.5 mg). The settings on record: in vivo, 1008 h.
Series [20] concerns Cicer arietinum. In words: Toxicity in drug-tolerant Cicer arietinum (chickpea) assessed as effect on total nitrogen level per gram of plant dry weight at 75 g/ha after 42 days (reference value: 31.1 mg). The settings on record: in vivo, 1008 h.

Consider `CS(=O)(=O)c1cc(C(F)(F)F)ccc1C(=O)c1cnoc1C1CC1` [ISOXAFLUTOLE], for which the Activity with Cicer arietinum [1] is recorded as 8.1 mg; in the series on Cicer arietinum [2] it was 11.1 mg; in the series on Cicer arietinum [3], 0.76 mg; in the series with Cicer arietinum [4] it was 1.16 mg; with Cicer arietinum [5], 123.7 mg; in the series with Cicer arietinum [6], 174.9 mg. In addition, the Activity in the series with Cicer arietinum [7] worked out at 0.13 g; with Cicer arietinum [8], 0.27 g; with Cicer arietinum [9], 0.51 g; in the series on Cicer arietinum [10], 0.54 g; in the series with Cicer arietinum [11], 0.51 g; with Cicer arietinum [12] it was 0.39 g. Also, the Activity with Cicer arietinum [13] is recorded as 15.5 cm; in the series on Cicer arietinum [14], 20.6 cm; in the series with Cicer arietinum [15], 3.1 mg; with Cicer arietinum [16], 4.6 mg; in the series with Cicer arietinum [17], 3.5 mg; in the series with Cicer arietinum [18] it was 3.7 mg. Further, the Activity was found to be 27.4 mg in the series on Cicer arietinum [19] and 30.1 mg with Cicer arietinum [20].
